Test results published in patent US11059795B2, “Androgen receptor modulators and methods for their use” (ESSA Pharma, Inc., priority 2018, dated 2021).

Key:
[1] = Microsomal stability assay, human liver microsomes; type: in vitro ADME; conditions: pH 7.4, 1 μM compound, 0.5 mg/mL protein, 37° C., read-out: HLM +/− NADPH: Clint (μL/min/mg protein)
Description: Microsomal stability assay is a widely used in vitro model to characterize the metabolic conversion by phase I enzymes, such as cytochrome P450 (CYP) enzymes. Since metabolism is known to be highly variable in different species, microsomal stability assay is commonly run in multiple species. Metabolic stability of testing compound can be evaluated using human, rat, mouse, or other animal liver or intestine microsomes to predict intrinsic clearance.
The assay was carried out in 96-well microtiter plates at 37° C. Reaction mixtures (25 μL) contained a final concentration of 1 μM test compound, 0.5 mg/mL liver microsomes protein, and 1 mM NADPH and/or 1 mM UDPGA (with alamethicin) in 100 mM potassium phosphate, pH 7.4 buffer with 3 mM MgCl2. The incubation was done with N=1, but duplicate incubation at each time point can be prepared if necessary. At each of the time points (for example, 0, 15, 30, and 60 minutes), 150 μL of quench solution (100% acetonitrile with 0.1% formic acid) with internal standard was transferred to each well. Besides the zero minute controls, mixtures containing the same components except the NADPH can also be prepared as the negative control. Verapamil was included as a positive control to verify assay performance. Plates were sealed, vortexed, and centrifuged at 4° C. for 15 minutes at 4000 rpm. The supernatant is transferred to fresh plates for LC/MS/MS analysis.
Summarized conditions: [Compound]=[…], [LM]=0.5 mg/mL, [NADPH]=1 mM and/or [UDPGA]=1 mM, Buffer=100 mM Potassium Phosphate, pH 7.4 with 3 mM MgCl2, Time=0, 15, 30, and 60 min, and Temperature=37° C.
All samples were analyzed on LC/MS/MS using an AB Sciex API 4000 instrument, coupled to a Shimadzu LC-20AD LC Pump system. Analytical samples were separated using a Waters Atlantis T3 dC18 reverse phase HPLC column (20 mm×2.1 mm) at a flow rate of 0.5 mL/min. The mobile phase consisted of 0.1% formic acid in water (solvent A) and 0.1% formic acid in 100% acetonitrile (solvent B).
The extent of metabolism is calculated as the disappearance of the test compound, compared to the 0-min time incubation. Initial rates are calculated for the compound concentration and used to determine half-life (t½) values and subsequently, the intrinsic clearance (Clint). Clint=(0.693)(1/t½ (min))(g of liver/kg of body weight)(mL incubation/mg of microsomal protein)(45 mg of microsomal protein/g of liver weight)

[2] = target: T1, androgen receptor (AR) (Homo sapiens, UniProt P10275, T878A); assay: Androgen-induced PSA (6.1 kb)-luciferase reporter assay in LNCaP cells; type: cell-based; conditions: LNCaP cells transfected with PSA (6.1 kb)-luciferase reporter, R1881 1 nM, 24 h; read-out: PSA-Luc IC50 Range
T1 construct: LNCaP cells were transiently transfected with the PSA (6.1 kb)-luciferase reporter for 24 h; endogenous in cells; host or cells: LNCaP
T1 sequence (P10275 1-920 T878A): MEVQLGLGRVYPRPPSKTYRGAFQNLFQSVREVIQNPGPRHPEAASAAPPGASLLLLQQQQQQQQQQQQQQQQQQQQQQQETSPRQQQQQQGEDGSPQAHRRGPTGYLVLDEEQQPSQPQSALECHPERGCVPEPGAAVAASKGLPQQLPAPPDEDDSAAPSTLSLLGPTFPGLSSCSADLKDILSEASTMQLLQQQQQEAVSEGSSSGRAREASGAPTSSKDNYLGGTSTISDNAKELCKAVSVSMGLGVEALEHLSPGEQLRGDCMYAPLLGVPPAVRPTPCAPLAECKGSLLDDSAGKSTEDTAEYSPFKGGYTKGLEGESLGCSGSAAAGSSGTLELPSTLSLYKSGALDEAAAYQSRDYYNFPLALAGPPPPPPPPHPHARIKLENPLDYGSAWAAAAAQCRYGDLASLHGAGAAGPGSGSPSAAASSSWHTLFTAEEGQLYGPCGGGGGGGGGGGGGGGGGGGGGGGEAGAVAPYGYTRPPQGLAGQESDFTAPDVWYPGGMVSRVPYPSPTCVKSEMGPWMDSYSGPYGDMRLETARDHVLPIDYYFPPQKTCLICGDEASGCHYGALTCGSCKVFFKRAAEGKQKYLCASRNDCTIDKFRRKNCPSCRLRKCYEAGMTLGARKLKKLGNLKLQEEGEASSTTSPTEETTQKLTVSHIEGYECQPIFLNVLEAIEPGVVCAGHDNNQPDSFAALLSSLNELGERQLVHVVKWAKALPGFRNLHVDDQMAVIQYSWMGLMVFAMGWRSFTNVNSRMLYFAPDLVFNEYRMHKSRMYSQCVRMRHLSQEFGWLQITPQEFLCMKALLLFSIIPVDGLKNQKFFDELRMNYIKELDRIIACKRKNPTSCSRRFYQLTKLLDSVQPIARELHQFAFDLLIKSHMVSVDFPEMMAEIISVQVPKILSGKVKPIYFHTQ
Description: The PSA (6.1 kb)-luciferase reporter contains functional AREs (androgen response elements) to which AR binds in response to androgen to induce luciferase activity.
Cells were lysed using Passive Lysis Buffer (Promega) and then collected into V-bottom 96-well tissue culture plates. Lysates were centrifuged at 4° C. for 5 minutes at 3000 rpm. To measure luminescence of LNCaP cell lysates the Firefly Luciferase Assay System (Promega) was employed, according to manufacturer's protocol. Relative luminescence units (RLU) in cell lysates were detected for 10 seconds using Promega GloMax-Multi Detection Luminometer (Promega). Values were normalized to protein content. GraphPad Prism graphing software was used to calculate IC50 values.
Comparisons between treatment and control groups were compared using Two-Way ANOVA with post-hoc Dunnett's and Tukey's tests. Differences were considered statistically significant at P values less than 0.05.

| Structure (SMILES) | microsomal CLint at 1 μM [1] [µL/min/mg] | IC50 [2] [nM] |
| --- | --- | --- |
| CC(C)(c1ccc(-c2cc(CNS(C)(=O)=O)on2)cc1)c1cc(Cl)c(OCCCCl)c(Cl)c1 [Compound A22, N-((3-(4-(2-(3,5-dichloro-4-(3-chloropropoxy)phenyl)propan-2-yl)phenyl) Isoxazol-5-yl)methyl)methanesulfonamide] | < 12 | > 2000 |
| CC(C)(c1ccc(OCc2ocnc2S(C)(=O)=O)cc1)c1cnc(NCCCl)nc1 [Compound A58] | 12 to 48 | > 2000 |
| CC(C)(C)N(c1ccc(OCc2ocnc2S(C)(=O)=O)cc1)c1cc(Cl)c(OCCCl)c(Cl)c1 [Compound A31, N-tert-Butyl-3,5-dichloro-4-(2-chloroethoxy)-N-[4-[(4-methylsulfonyloxazol-5-yl)-methoxy]-phenyl]aniline] | 12 to 48 | < 500 |
| CSc1nnc(COc2ccc(C(C)(C)c3cc(Cl)c(OCCCCl)c(Cl)c3)cc2)o1 [Compound A17] | < 12 | 500 to 2000 |
| CC(C)(c1ccc(OCCCl)c(Cl)c1)c1ccc(OCc2ocnc2S(C)(=O)=O)c(C#N)c1 [Compound A62] | < 12 | > 2000 |
| CC(C)(c1ccc(-c2coc(CNS(C)(=O)=O)n2)cc1)c1cc(Cl)c(OCCCCl)c(Cl)c1 [Compound A21] | < 12 | – |
| CN1C(=O)N(Cc2ccc(C(C)(C)c3cc(Cl)c(OCCCl)c(Cl)c3)cc2C#N)C(=O)C1(C)C [Compound B8] | ≥ 48 | 500 to 2000 |
| CC(C)(c1ccc(-c2c[nH]c(CNS(C)(=O)=O)n2)cc1)c1cc(Cl)c(OCCCCl)c(Cl)c1 [Compound A25] | < 12 | > 2000 |
| CC(C)(c1ccc(OCc2ccnc(NS(C)(=O)=O)n2)cc1)c1cc(F)c(OCCCl)c(C#N)c1 [Compound A205] | – | 500 to 2000 |
| CC(C)(c1ccc(OCc2nc(NS(C)(=O)=O)nc3c2CCNC3)cc1)c1cc(Cl)c(OCCCl)c(C#N)c1 [Compound A191] | – | 500 to 2000 |
| Cc1nc(-c2ccc(C(C)(C)c3cc(Cl)c(OCCCCl)c(Cl)c3)cc2)co1 [Compound A64] | ≥ 48 | > 2000 |
| CC(C)(c1cc(Cl)c(OCCCl)c(Cl)c1)c1ccc(OCc2ocnc2S(C)(=O)=O)c(C(N)=O)c1 [Compound A76] | < 12 | 500 to 2000 |
| CC(C)(c1ccc(OCc2ocnc2S(C)(=O)=O)cc1)c1cc(Cl)c(NCCCl)c(Cl)c1 [Compound A50] | 12 to 48 | 500 to 2000 |
| CC(C)(c1ccc(Nc2ncc(CNS(C)(=O)=O)o2)cc1)c1cc(Cl)c(OCCCl)c(Cl)c1 [Compound A75, N-((2-((4-(2-(3,5-Dichloro-4-(2-chloroethoxy)phenyl)propan-2-yl)phenyl)amino)oxazol-5-yl)methyl)methanesulfonamide] | < 12 | 500 to 2000 |
| CC(C)(c1ccc(OCc2cn(S(C)(=O)=O)cn2)cc1)c1cc(Cl)c(OCCCCl)c(Cl)c1 [Compound A5, 4-((4-(2-(3,5-dichloro-4-(3-chloropropoxy)phenyl)propan-2-yl)phenoxy)methyl)-1-(methylsulfonyl)-1H-imidazole] | < 12 | 500 to 2000 |
| CC(C)(c1ccc(OCc2noc(S(C)(=O)=O)n2)cc1)c1cc(Cl)c(OCCCl)c(C#N)c1 [Compound A151] | – | 500 to 2000 |
| CC(C)(c1ccc(-n2cnc(CNS(C)(=O)=O)c2)cc1)c1cc(Cl)c(OCCCl)c(Cl)c1 [Compound A24] | < 12 | 500 to 2000 |
| CC(C)(c1ccc(OCc2ocnc2S(C)(=O)=O)cc1)c1cc(Cl)c(OCCN)c(Cl)c1 [Compound A53] | < 12 | > 2000 |
| COc1c(Cl)cc(C(C)(C)c2ccc(OCc3ocnc3S(C)(=O)=O)cc2)cc1Cl [Compound A56] | < 12 | 500 to 2000 |
| CC(C)(c1ccc(OCc2nnc(O)o2)cc1)c1cc(Cl)c(OCCCCl)c(Cl)c1 [Compound A18] | ≥ 48 | > 2000 |

The remaining lines, values ahead:

| microsomal CLint at 1 μM [1] [µL/min/mg] | IC50 [2] [nM] | Structure (SMILES) |
| --- | --- | --- |
| 12 to 48 | > 2000 | C[C@@](O)(c1ccc(OCc2ocnc2S(C)(=O)=O)cc1)c1cc(Cl)c(OCCCl)c(C#N)c1 [Compound A107] |
| – | 500 to 2000 | CC(C)(c1ccc(OC2CCc3cnc(NS(C)(=O)=O)nc32)cc1)c1cc(Cl)c(OCCCl)c(C#N)c1 (centres unmarked) [Compound A203] |
| ≥ 48 | > 2000 | CC(C)(c1ccc(OCc2ncncc2NS(C)(=O)=O)cc1)c1cc(Cl)c(OCCCl)c(Cl)c1 [Compound A41, N-(4-((4-(2-(3,5-Dichloro-4-(2-chloroethoxy)phenyl)propan-2-yl)phenoxy)methyl)pyrimidin-5-yl)methanesulfonamide] |
| < 12 | > 2000 | CCOc1c(Cl)cc(C(C)(C)c2ccc(OCc3ocnc3S(C)(=O)=O)cc2)cc1Cl [Compound A52] |
| 12 to 48 | 500 to 2000 | CC(C)(c1ccc(OCc2[nH]ncc2NS(C)(=O)=O)cc1)c1cc(Cl)c(OCCCl)c(Cl)c1 [Compound A40, N-[3-[[4-[1-[3,5-Dichloro-4-(2-chloroethoxy)phenyl]-1-methyl-ethyl]phenoxy]methyl]-1H-pyrazol-4-yl]methanesulfonamide] |
| 12 to 48 | 500 to 2000 | CC(C)(c1ccc(OCCCl)c(C#N)c1)c1ccc(OCc2ocnc2S(C)(=O)=O)c(C#N)c1 [Compound A63, 2-(2-chloroethoxy)-5-(2-(3-cyano-4-((4-(methylsulfonyl)oxazol-5-yl)methoxy)phenyl)propan-2-yl)benzonitrile] |
| 12 to 48 | > 2000 | CC(C)(c1ccc(N2C(=O)N(N)C(C)(C)C2=O)cc1)c1cc(Cl)c(OCCCl)c(Cl)c1 [Compound B6] |
| 12 to 48 | > 2000 | CC(=O)Nc1cc(COc2ccc(C(C)(C)c3cc(Cl)c(OCCCCl)c(Cl)c3)cc2)on1 [Compound A23] |
| < 12 | 500 to 2000 | CC(C)(c1ccc(OCc2ocnc2S(C)(=O)=O)cc1)c1cc(Cl)c(OCCC(F)(F)F)c(Cl)c1 [Compound A54, 5-((4-(2-(3,5-Dichloro-4-(3,3,3-trifluoropropoxy)phenyl)propan-2-yl)phenoxy)methyl)-4-(methylsulfonyl)oxazole] |
